Like-named read-outs stand apart in the source and are kept apart here.
How the values were obtained:
[1] = system: panel of 24 kinases representing the human kinome; assay: ProQinase 24 kinase selectivity panel (whole panel); type: biochemical; conditions: 1 µM
Method: The kinase selectivity of the inhibitors used here was ensured in order to discard potential off-targets effects contributing to the observed TRF1 modulation.
(§1) Supplementary Table 1: Kinase selectivity profile of ETP-47037 and ETP-47228 at 1 µM. Selectivity against protein kinases was determined from evaluation of compounds at 1µM in ProQinase’s 24 selected panel that represents the ACG, STE, TKL, TK, CMGC CAMK and CK1 kinase families.

[2] = system: p-AKT S473 in CHA-9.3 mouse lung cancer cell line; assay: Western blot of AKT phosphorylation at Ser473 in CHA-9.3 cells; type: cell-based; conditions: for p-AKT S473 inhibition (in words): 10 μM time course; for inhibition at 10 µM: Mus musculus
Method: These new chemical probes were prepared by replacement of a single key oxygen atom from the morpholine moiety by a methylene group, generating the piperidine derivatives ETP-51259 and ETP-50952 (Fig. 1a). To assess their PI3K cellular activity, we measured phosphorylation of residue Ser473 in AKT (p-AKT S473), a PI3K downstream target[61]–[63], by western blot analysis. To this end, we used the CHA-9.3 mouse lung cancer cell line previously generated by us[39]. […] Of note, the inhibitory activity of ETP-47037 was more prolonged than that of ETP-47228. Thus, ETP-47037 mediated p-AKT S473 inhibition was maintained during the 24-hour treatment while the ETP-47228 mediated inhibition decreased 35% after 24 h as compared to 1-h treatment but still was able to inhibit the pathway above 50% (Fig. 1c).
(§2) For detection of AKT, PRAS40 (T246) and pS6 in CHA9.3 cells, untreated control (DMSO) or treated with the indicated inhibitors, were lysed in RIPA buffer supplemented with 100 mM pefablock (Roche Diagnostics) and protease inhibitor cocktail (Roche Molecular Biochemicals). Proteins were resolved on 10% SDS-PAGE, and transferred to nitrocellulose membrane (Amersham^TM Protan^TM 0.2 µm nNC). Membranes were incubated with antibodies against phospho-AKT (Ser473), AKT, phospo-S6 (Ser 235/236), and S6Ribosomal from Cell Signaling, phospo-PRAS40 (Thr246) from BIOSURCE and anti α-tubulin form Sigma, overnight at 4 °C. After washing, blots were incubated with secondary antibody: Alexa Fluor 680 goat anti-rabbit IgG (Invitrogen) or anti-mouse IgG DyLight 800 conjugated (Thermo Scientific), and visualized using an Odyssey infrared imaging system (Li-Cor Biosciences).

IPSCs = system: IPSCs; parameters: method as in PMID 25971796; conditions: cited from earlier work
[3] = system: PRAS40 (T246) and pS6 (S235/236) in CHA 9-3 cells; assay: Western blot of PI3K downstream targets PRAS40 (T246) and pS6 (S235/236); type: cell-based, mouse; conditions: 10 μM
Method: We also determined the effect of ETP-47037 and ETP-47228 in the inhibition of other PI3K downstream targets, PRAS40 (T246), and pS6 (S235/236)[64], [65] (Supplementary Fig. 1).
as §2
Supplementary Figure 1. Modulation of PI3K/AKT downstream targets by ETP-47037 and ETP-47228. Representative Western blot images of PRAS40 phosphorylation at T246 and of P6 at S235/236 in CHIA 9-3 lung cancer cell line treated for 24 hours with 10 µM of ETP-47037 or with 10 µM of ETP-47228 at different time points of the treatment. […]

PI3K (p110α) = molecular target: T1, PI3K (p110α) (Homo sapiens, UniProt P42336); assay: PI3K alpha biochemical assay (ADP Hunter Plus); conditions: internal data; read-out: PI3Kα IC50
T1 construct: purchased Cama Biosciences (sic; Carna Biosciences) #07CBS-0402A

CDK8-CycC = molecular target: T2, CDK8-CycC (Homo sapiens, UniProt P49336); assay: ProQinase kinase panel; type: biochemical; conditions: read-out: Inh (%) at 1µM, CDK8-CycC
T2 construct: purchased ProQinase
Method: as §1

KIT = molecular target: T3, KIT (Homo sapiens, UniProt P10721); assay: ProQinase kinase panel; type: biochemical; conditions: read-out: Inh (%) at 1µM, KIT
T3 construct: purchased ProQinase
Method: as §1

AKT2 = molecular target: T4, AKT2 (Homo sapiens, UniProt P31751); assay: ProQinase kinase panel; type: biochemical; conditions: read-out: Inh (%) at 1µM, AKT2
T4 construct: purchased ProQinase
Method: as §1

MEK1 = molecular target: T5, MEK1 (Homo sapiens, UniProt Q02750); assay: ProQinase kinase panel; type: biochemical; conditions: read-out: Inh (%) at 1µM, MEK1
T5 construct: purchased ProQinase
Method: as §1

PDGFR-alpha = molecular target: T6, PDGFR-alpha (Homo sapiens, UniProt P16234); assay: ProQinase kinase panel; type: biochemical; conditions: read-out: Inh (%) at 1µM, PDGFR-alpha
T6 construct: purchased ProQinase
Method: as §1

PAK1 = molecular target: T7, PAK1 (Homo sapiens, UniProt Q13153); assay: ProQinase kinase panel; type: biochemical; conditions: read-out: Inh (%) at 1µM, PAK1
T7 construct: purchased ProQinase
Method: as §1

CHA 9-3 cells = assay: Multitelomeric signals (MTS) by Q-FISH on metaphase spreads; type: cell-based, mouse; conditions: 10 μM, 24 h
Description: Trf1 abrogation is known to lead to a persistent DDR at telomeres, and to induction of telomere-induced chromosomal aberrations[28]–[30]. Trf1 genetic deletion induces the so-called multitelomeric signals (MTS), a chromosomal aberration related to increased telomere fragility during DNA replication, [29]. […] To this end, we treated CHA 9-3 cells with either DMSO, the AKT inhibitor MK-2206 (AKTi) and the PI3K inhibitors ETP-47037 or ETP-47228. For detection of MTS, we performed quantitative fluorescence in situ hybridization (Q-FISH) analysis on metaphase spreads using a telomeric probe to visualize telomeres (“Methods” section). MTS are visualized by presenting a multi-dot pattern at chromosome ends in contrast to normal telomeres that show a single dot at each chromosome end.
Lung cancer-derived cell line (CHA-9-3) and immortalized P110α ^lox/lox MEFS were treated either with 10 µM of ETP-47037, ETP-47228, or AKTi (MK-2206) for 24 h. Q-FISH in metaphase spreads was performed as described above, but increasing the concentration of formamide in both the incubation and the washes to 70%.

[4] = system: TRF1 protein in CHA 9-3 nuclear extracts; assay: Western blot of nuclear TRF1 in CHA 9-3 cells; type: cell-based, mouse; conditions: 10 μM
Method: Blots were incubated with the primary antibodies anti-TRF1 1:500 (home-made monoclonal Rat, CNIO; TRF-78, ABCAM, ab10579) and with anti-SMC1 1:2000 (Bethyl Laboratories #A300-055A) as loading control. For nuclear protein preparation, the Nuclear/Cytosol Fractionation Kit (K266-100, BioVision) was used according to the manufactures protocol.

[5] = 1 h, 1 h, read-out: Inhibition pAKT (Ser 473) with regard to DMSO
[6] = 4 h, 4 h, read-out: Inhibition pAKT (Ser 473) with regard to DMSO
[7] = 8 h, 8 h, read-out: Inhibition pAKT (Ser 473) with regard to DMSO
[8] = 16 h, 16 h, read-out: Inhibition pAKT (Ser 473) with regard to DMSO
[9] = 24 h, 24 h, read-out: Inhibition pAKT (Ser 473) with regard to DMSO

T1 sequence (P42336 whole entry): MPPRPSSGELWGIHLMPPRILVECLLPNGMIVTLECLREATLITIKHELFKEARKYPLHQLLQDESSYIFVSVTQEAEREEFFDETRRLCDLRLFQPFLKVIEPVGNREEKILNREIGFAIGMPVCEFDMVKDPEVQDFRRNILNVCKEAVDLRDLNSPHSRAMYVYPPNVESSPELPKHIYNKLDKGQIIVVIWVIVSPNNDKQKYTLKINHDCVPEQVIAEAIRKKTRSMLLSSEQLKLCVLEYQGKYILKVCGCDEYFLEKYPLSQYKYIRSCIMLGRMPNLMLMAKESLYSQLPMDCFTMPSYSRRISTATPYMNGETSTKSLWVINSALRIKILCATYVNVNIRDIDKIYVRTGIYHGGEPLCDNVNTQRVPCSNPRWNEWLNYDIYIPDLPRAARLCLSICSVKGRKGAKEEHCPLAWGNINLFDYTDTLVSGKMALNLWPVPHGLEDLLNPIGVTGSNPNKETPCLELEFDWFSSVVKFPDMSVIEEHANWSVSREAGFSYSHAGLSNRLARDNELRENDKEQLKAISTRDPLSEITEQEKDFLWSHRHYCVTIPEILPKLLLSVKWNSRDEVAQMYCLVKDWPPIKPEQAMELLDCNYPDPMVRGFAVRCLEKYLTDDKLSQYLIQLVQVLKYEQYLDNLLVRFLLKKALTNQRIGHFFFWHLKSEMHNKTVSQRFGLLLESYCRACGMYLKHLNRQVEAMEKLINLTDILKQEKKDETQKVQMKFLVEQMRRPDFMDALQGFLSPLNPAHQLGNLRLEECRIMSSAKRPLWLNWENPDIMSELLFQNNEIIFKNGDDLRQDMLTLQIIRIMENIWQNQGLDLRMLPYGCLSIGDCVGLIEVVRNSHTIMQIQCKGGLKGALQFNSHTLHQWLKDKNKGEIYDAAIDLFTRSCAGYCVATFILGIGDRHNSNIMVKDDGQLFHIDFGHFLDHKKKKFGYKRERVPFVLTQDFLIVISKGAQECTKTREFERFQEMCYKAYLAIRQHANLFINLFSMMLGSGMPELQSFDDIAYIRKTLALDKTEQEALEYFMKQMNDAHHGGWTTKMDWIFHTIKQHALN
T1 sequence (P27986 whole entry partner): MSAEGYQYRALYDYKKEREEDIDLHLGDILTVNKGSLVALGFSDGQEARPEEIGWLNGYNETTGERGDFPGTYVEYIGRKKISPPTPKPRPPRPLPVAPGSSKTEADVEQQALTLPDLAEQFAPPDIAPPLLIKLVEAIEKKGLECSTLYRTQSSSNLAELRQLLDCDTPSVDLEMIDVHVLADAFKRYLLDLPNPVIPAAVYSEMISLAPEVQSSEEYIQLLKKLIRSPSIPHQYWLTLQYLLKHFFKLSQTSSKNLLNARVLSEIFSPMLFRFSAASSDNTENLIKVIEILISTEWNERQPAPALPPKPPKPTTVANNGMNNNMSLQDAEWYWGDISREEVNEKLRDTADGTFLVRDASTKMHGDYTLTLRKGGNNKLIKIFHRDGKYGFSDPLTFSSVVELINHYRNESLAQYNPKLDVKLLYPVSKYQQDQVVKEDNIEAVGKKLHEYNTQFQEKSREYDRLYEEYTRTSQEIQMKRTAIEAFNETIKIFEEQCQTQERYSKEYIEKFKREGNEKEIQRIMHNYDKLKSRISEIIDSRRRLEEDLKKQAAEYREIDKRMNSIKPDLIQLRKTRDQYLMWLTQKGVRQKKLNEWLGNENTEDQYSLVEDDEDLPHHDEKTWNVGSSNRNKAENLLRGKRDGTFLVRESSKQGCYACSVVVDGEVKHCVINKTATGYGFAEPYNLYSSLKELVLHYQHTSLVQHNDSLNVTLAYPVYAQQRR
T6 sequence (P16234 24-1089): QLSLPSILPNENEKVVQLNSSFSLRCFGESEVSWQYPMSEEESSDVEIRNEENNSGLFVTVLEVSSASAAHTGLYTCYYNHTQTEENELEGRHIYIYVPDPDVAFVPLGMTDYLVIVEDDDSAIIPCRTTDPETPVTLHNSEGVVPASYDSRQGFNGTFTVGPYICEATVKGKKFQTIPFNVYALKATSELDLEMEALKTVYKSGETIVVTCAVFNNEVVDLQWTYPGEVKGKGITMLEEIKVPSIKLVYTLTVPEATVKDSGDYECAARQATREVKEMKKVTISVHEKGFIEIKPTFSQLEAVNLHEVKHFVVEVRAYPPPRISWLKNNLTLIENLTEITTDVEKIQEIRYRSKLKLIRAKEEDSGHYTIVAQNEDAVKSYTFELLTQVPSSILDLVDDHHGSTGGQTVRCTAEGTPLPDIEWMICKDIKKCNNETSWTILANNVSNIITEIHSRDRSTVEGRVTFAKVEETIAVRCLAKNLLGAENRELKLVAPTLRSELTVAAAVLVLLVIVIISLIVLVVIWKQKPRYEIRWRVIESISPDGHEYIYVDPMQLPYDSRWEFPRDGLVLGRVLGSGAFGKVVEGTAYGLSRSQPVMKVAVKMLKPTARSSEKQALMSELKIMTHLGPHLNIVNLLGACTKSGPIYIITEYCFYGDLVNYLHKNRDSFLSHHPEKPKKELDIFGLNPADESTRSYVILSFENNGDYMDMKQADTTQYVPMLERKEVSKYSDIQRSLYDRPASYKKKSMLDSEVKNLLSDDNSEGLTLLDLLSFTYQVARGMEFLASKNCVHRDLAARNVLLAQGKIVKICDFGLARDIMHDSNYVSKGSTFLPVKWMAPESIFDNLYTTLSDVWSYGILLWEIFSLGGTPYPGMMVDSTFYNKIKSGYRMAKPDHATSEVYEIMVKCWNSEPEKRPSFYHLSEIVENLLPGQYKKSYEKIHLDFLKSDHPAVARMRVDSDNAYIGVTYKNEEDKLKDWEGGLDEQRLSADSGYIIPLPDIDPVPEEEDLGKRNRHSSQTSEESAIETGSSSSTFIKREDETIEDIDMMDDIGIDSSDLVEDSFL
T2 sequence (P49336 whole entry): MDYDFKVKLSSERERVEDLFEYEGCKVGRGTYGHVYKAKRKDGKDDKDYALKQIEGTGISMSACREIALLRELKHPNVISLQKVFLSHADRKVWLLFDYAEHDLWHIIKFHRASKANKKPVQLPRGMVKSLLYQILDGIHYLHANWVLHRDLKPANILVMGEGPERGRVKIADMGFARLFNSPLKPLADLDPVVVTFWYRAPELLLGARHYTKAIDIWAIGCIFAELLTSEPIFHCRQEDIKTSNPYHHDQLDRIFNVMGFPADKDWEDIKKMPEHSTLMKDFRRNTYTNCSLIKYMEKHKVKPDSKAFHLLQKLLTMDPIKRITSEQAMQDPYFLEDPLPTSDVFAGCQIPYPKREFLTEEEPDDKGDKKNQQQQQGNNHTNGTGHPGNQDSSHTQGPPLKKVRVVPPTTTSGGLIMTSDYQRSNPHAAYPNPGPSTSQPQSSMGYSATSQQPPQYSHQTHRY
T2 sequence (P24863 whole entry partner): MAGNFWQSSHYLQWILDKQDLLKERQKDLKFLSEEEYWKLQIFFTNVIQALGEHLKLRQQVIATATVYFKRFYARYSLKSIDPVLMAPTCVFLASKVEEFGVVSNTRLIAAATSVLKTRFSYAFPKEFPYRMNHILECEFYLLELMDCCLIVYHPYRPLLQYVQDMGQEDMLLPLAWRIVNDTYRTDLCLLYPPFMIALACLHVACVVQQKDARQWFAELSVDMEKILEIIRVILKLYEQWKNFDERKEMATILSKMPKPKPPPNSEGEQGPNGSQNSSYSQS
T7 sequence (Q13153 whole entry): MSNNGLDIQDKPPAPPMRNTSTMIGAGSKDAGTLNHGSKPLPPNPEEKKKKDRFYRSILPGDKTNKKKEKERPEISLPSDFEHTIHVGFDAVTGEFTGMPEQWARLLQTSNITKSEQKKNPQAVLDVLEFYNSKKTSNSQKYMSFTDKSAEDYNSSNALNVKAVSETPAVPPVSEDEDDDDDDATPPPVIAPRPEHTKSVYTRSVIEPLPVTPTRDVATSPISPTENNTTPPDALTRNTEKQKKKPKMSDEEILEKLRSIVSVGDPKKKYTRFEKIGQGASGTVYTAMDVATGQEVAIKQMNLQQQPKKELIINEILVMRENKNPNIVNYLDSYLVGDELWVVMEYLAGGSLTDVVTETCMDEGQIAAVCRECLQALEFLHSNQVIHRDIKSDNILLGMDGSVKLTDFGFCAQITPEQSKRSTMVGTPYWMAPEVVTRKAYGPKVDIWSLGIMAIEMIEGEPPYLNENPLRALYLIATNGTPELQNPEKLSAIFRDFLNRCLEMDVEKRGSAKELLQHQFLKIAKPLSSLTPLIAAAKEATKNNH
T5 sequence (Q02750 whole entry): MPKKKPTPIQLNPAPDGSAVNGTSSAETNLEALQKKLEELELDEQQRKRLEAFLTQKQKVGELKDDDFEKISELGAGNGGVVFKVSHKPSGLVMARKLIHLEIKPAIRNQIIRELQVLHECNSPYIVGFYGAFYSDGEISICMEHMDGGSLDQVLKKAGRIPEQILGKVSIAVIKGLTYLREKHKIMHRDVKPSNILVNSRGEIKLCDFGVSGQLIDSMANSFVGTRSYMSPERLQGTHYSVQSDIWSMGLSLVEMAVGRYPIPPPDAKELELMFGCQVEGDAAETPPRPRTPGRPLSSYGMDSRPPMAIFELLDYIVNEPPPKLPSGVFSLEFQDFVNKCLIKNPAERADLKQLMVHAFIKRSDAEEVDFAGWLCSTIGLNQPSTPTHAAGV
T4 sequence (P31751 whole entry): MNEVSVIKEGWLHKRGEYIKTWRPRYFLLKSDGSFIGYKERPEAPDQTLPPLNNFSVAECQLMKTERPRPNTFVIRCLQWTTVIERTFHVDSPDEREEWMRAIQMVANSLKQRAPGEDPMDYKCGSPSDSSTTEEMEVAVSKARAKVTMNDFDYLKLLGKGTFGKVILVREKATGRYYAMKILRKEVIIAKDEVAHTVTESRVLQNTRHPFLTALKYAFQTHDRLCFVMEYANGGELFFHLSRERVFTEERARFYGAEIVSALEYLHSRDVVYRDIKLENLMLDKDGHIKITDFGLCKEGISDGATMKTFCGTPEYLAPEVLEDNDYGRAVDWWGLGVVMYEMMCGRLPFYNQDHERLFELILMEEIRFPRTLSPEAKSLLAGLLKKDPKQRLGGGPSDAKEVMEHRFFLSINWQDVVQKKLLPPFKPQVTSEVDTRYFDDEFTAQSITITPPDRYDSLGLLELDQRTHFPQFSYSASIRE

SMILES: Cc1cnc2c(N3CCOCC3)nc(-c3ccc(NC(=O)Nc4ccc(C(=O)N5CCN(C)CC5)cc4)cc3)cn12 [ETP-47228]
- Inhibition of any kinase of the 24 kinase panel (in words) [1]: negligible inhibition of any kinase tested
- p-AKT S473 inhibition (in words) [2]: strongly inhibited
- inhibition at 10 µM ([2]; read-out: Decrease of p-AKT S473 inhibition after 24 h as compared to 1-h treatment): 35%
- inhibition at 10 µM [2, 5]: 90%
- inhibition at 10 µM [2, 6]: 93%
- inhibition at 10 µM [2, 7]: 78%
- inhibition at 10 µM [2, 8]: 66%
- inhibition at 10 µM [2, 9]: 59%
- Formation of MTS in IPSCs (IPSCs): induce formation of MTS
- Inhibition of PI3K downstream targets PRAS40 (T246) and pS6 (S235/236) (in words) [3]: bona fide inhibitors of the PI3K/AKT axis
- IC50 (PI3K (p110α)): 2.6 nM
- inhibition at 1 µM (CDK8-CycC): 1%
- inhibition at 1 µM (KIT): 6.5%
- inhibition at 1 µM (AKT2): -8%
- inhibition at 1 µM (MEK1): -3%
- inhibition at 1 µM (PDGFR-alpha): 1%
- inhibition at 1 µM (PAK1): 1%
- Frequency of MTS events per metaphase compared to DMSO (CHA 9-3 cells): significantly increased
- TRF1 protein levels in nuclear extracts [4]: significantly decreased

SMILES: CS(=O)(=O)N1CCN(Cc2cc3c(N4CCOCC4)nc(-c4cnc(N)nc4)cn3n2)CC1 [ETP-47037]
- Inhibition of any kinase of the 24 kinase panel (in words) [1]: negligible inhibition of any kinase tested
- p-AKT S473 inhibition (in words) [2]: strongly inhibited
- inhibition at 10 µM [2, 5]: 92%
- inhibition at 10 µM [2, 6]: 97%
- inhibition at 10 µM [2, 7]: 96%
- inhibition at 10 µM [2, 8]: 97%
- inhibition at 10 µM [2, 9]: 94%
- Formation of MTS in IPSCs (IPSCs): induce formation of MTS
- Inhibition of PI3K downstream targets PRAS40 (T246) and pS6 (S235/236) (in words) [3]: bona fide inhibitors of the PI3K/AKT axis
- IC50 (PI3K (p110α)): 0.99 nM
- inhibition at 1 µM (CDK8-CycC): -4.5%
- inhibition at 1 µM (KIT): 9%
- inhibition at 1 µM (AKT2): -7.5%
- inhibition at 1 µM (MEK1): -15%
- inhibition at 1 µM (PDGFR-alpha): 4%
- inhibition at 1 µM (PAK1): -3.5%
- Frequency of MTS events per metaphase compared to DMSO (CHA 9-3 cells): significantly increased
- TRF1 protein levels in nuclear extracts [4]: significantly decreased

— paper PMC5668434, “Modulation of telomere protection by the PI3K/AKT pathway” (Nature Communications, 2017)
